Reference: ChEMBL document CHEMBL1201862, “PubChem BioAssay data set” (2004)
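In this assay, cells in 96-well plates receive the compound at five concentrations for 48 hours. Endpoints are linearly interpolated between the surrounding concentrations. GI50: concentration for 50% inhibition of growth.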 Active and inactive are the calls of the source. Cut-off read from the data, not from the text of the source: active = GI50 up to about 1.1 µM and inactive = higher.

What was measured:
Assay in all cases: NCI tumour cell line growth inhibition, 48 h
UACC-62 = system: UACC-62
MDA-MB-231 = system: MDA-MB-231
M14 = system: M14
U-251 = system: U-251
OVCAR-5 = system: OVCAR-5
HT-29 = system: HT-29
SK-MEL-28 = system: SK-MEL-28
K562 = system: K562
MDA-N = system: MDA-N
HCT-15 = system: HCT-15
NCI-H522 = system: NCI-H522
T47D = system: T47D
IGROV-1 = system: IGROV-1
SF-539 = system: SF-539
HCT-116 = system: HCT-116
SF-295 = system: SF-295
DU-145 = system: DU-145
MDA-MB-435 = system: MDA-MB-435
COLO 205 = system: COLO 205
A549 = system: A549

SMILES: C=CCN1CCC(O)(c2cc(C(=O)OCC)[nH]c2-c2cc(C)no2)C1 (stereo not given)
- GI50 (UACC-62): > 100 µM (inactive)
- GI50 (MDA-MB-231): > 100 µM (inactive)
- GI50 (M14): > 100 µM (inactive)
- GI50 (U-251): > 100 µM (inactive)
- GI50 (OVCAR-5): > 100 µM (inactive)
- GI50 (HT-29): > 100 µM (inactive)
- GI50 (SK-MEL-28): > 100 µM (inactive)
- GI50 (K562): > 100 µM (inactive)
- GI50 (MDA-N): > 100 µM (inactive)
- GI50 (HCT-15): > 100 µM
- GI50 (NCI-H522): > 100 µM (inactive)
- GI50 (T47D): > 100 µM (inactive)
- GI50 (IGROV-1): > 100 µM (inactive)
- GI50 (SF-539): > 100 µM (inactive)
- GI50 (HCT-116): > 100 µM (inactive)
- GI50 (SF-295): > 100 µM (inactive)
- GI50 (DU-145): > 100 µM (inactive)
- GI50 (MDA-MB-435): > 100 µM (inactive)
- GI50 (COLO 205): > 100 µM (inactive)
- GI50 (A549): > 100 µM (inactive)

SMILES: Cc1ccc(C(=O)Nc2ccc(CP(=O)(O)O)cc2)cc1NC(=O)c1cccc(NC(=O)Nc2cccc(C(=O)Nc3cc(C(=O)Nc4ccc(CP(=O)(O)O)cc4)ccc3C)c2)c1
- GI50 (UACC-62): > 100 µM (inactive)
- GI50 (MDA-MB-231): > 100 µM (inactive)
- GI50 (M14): > 100 µM (inactive)
- GI50 (U-251): > 100 µM (inactive)
- GI50 (OVCAR-5): > 100 µM (inactive)
- GI50 (HT-29): > 100 µM (inactive)
- GI50 (SK-MEL-28): > 100 µM (inactive)
- GI50 (K562): > 100 µM (inactive)
- GI50 (MDA-N): > 100 µM (inactive)
- GI50 (HCT-15): > 100 µM
- GI50 (NCI-H522): > 100 µM (inactive)
- GI50 (T47D): > 100 µM (inactive)
- GI50 (IGROV-1): > 100 µM (inactive)
- GI50 (SF-539): > 100 µM (inactive)
- GI50 (HCT-116): > 100 µM (inactive)
- GI50 (SF-295): > 100 µM (inactive)
- GI50 (DU-145): > 100 µM (inactive)
- GI50 (MDA-MB-435): > 100 µM (inactive)
- GI50 (COLO 205): > 100 µM (inactive)
- GI50 (A549): > 100 µM (inactive)

SMILES: COC(=O)/C(=C\Nc1cccc(C)n1)S(=O)(=O)c1ccc(C)cc1
- GI50 (UACC-62): 31.5 µM (inactive)
- GI50 (MDA-MB-231): 64.3 µM (inactive)
- GI50 (M14): 45.7 µM (inactive)
- GI50 (U-251): 73.3 µM (inactive)
- GI50 (OVCAR-5): > 100 µM (inactive)
- GI50 (HT-29): 47.4 µM (inactive)
- GI50 (SK-MEL-28): 67 µM (inactive)
- GI50 (K562): 21.1 µM (inactive)
- GI50 (MDA-N): 30.1 µM (inactive)
- GI50 (HCT-15): 45.3 µM
- GI50 (NCI-H522): 66.4 µM (inactive)
- GI50 (T47D): 48 µM (inactive)
- GI50 (IGROV-1): > 100 µM (inactive)
- GI50 (SF-539): 52.4 µM (inactive)
- GI50 (HCT-116): 52.2 µM (inactive)
- GI50 (SF-295): > 100 µM (inactive)
- GI50 (DU-145): > 100 µM (inactive)
- GI50 (MDA-MB-435): 39 µM (inactive)
- GI50 (COLO 205): 22.2 µM (inactive)
- GI50 (A549): 60 µM (inactive)

SMILES: Cn1c(-c2cccs2)cc(-c2ccsc2)c1-c1cccs1
- GI50 (UACC-62): 42.6 µM (inactive)
- GI50 (MDA-MB-231): 99.1 µM (inactive)
- GI50 (M14): 92.3 µM (inactive)
- GI50 (U-251): > 100 µM (inactive)
- GI50 (OVCAR-5): > 100 µM (inactive)
- GI50 (HT-29): 55.3 µM (inactive)
- GI50 (SK-MEL-28): 99.1 µM (inactive)
- GI50 (K562): 75.7 µM (inactive)
- GI50 (MDA-N): 55.3 µM (inactive)
- GI50 (HCT-15): 88.9 µM
- GI50 (NCI-H522): 72.8 µM (inactive)
- GI50 (T47D): 3.04 µM (inactive)
- GI50 (IGROV-1): > 100 µM (inactive)
- GI50 (SF-539): > 100 µM (inactive)
- GI50 (HCT-116): 16.3 µM (inactive)
- GI50 (SF-295): > 100 µM (inactive)
- GI50 (DU-145): 87.1 µM (inactive)
- GI50 (MDA-MB-435): 57.4 µM (inactive)
- GI50 (COLO 205): 17.3 µM (inactive)
- GI50 (A549): > 100 µM (inactive)

SMILES: Cc1nc2c(nc1C)-c1c(c3c(n1Cc1ccccc1)C(=O)CCC3)C(=O)C2=O
- GI50 (UACC-62): 14.5 µM (inactive)
- GI50 (MDA-MB-231): 3.61 µM (inactive)
- GI50 (M14): 4.42 µM (inactive)
- GI50 (U-251): 2.9 µM (inactive)
- GI50 (OVCAR-5): 3.74 µM (inactive)
- GI50 (HT-29): 4.65 µM (inactive)
- GI50 (SK-MEL-28): 2.02 µM (inactive)
- GI50 (K562): 2.96 µM (inactive)
- GI50 (MDA-N): 2.21 µM (inactive)
- GI50 (HCT-15): 3.15 µM
- GI50 (NCI-H522): 2.86 µM (inactive)
- GI50 (T47D): 4.06 µM (inactive)
- GI50 (IGROV-1): 2.58 µM (inactive)
- GI50 (SF-539): 2.33 µM (inactive)
- GI50 (HCT-116): 4.84 µM (inactive)
- GI50 (SF-295): 13.7 µM (inactive)
- GI50 (DU-145): 5.08 µM (inactive)
- GI50 (MDA-MB-435): 2.31 µM (inactive)
- GI50 (COLO 205): 30.5 µM (inactive)
- GI50 (A549): 3.93 µM (inactive)
